Consider 48 compounds from ChEMBL document CHEMBL3352322, “Synthesis and biological evaluation of 3-phenethylazetidine derivatives as triple reuptake inhibitors” (Bioorg Med Chem Lett, 2014).

In series [1] the target is T1, Sodium-dependent serotonin transporter (Homo sapiens, UniProt P31645). The note with it: HEK293, at 0.1 µM.
Target sequence in this assay (P31645 whole entry, looked up): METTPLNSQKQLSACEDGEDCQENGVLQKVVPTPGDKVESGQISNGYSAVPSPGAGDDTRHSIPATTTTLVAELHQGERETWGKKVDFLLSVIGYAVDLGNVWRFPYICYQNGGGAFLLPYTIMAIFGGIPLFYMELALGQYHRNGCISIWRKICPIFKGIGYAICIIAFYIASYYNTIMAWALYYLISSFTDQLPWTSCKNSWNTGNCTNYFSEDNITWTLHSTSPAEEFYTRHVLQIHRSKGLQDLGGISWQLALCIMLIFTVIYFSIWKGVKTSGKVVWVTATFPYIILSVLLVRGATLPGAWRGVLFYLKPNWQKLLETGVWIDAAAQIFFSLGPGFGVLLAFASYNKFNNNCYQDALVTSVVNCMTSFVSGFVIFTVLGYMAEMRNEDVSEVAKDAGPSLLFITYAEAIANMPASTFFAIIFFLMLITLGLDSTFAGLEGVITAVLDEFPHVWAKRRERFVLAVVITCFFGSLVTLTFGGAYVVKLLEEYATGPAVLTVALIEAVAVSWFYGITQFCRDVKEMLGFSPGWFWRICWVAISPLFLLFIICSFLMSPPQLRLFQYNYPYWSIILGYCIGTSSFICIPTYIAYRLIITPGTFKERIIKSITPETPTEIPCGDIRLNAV
Series [2] addresses T1, Sodium-dependent serotonin transporter. To be noted: HEK293, at 10 µM.
Target sequence in this assay (P31645 whole entry, looked up): as above
Series [3] addresses T2, Sodium-dependent noradrenaline transporter (Homo sapiens, UniProt P23975). As to the kind of experiment: Ratio of venlafaxine IC50 to compound IC50 for norepinephrine reuptake at human NET expressed in HEK293 cells at 0.1 uM after 15 mins by fluorescence neurotransmitter transporter assay. In kind it is cell-based.
The target in series [4] is T1, Sodium-dependent serotonin transporter. To be noted: HEK293, at 1 µM.
Target sequence in this assay (P31645 whole entry, looked up): as above
For series [5] the target is unchanged. In words: Ratio of venlafaxine IC50 to compound IC50 for serotonin reuptake at human SERT expressed in HEK293 cells at 0.1 uM after 15 mins by fluorescence neurotransmitter transporter assay. It counts as cell-based.
Target sequence in this assay (P31645 whole entry, looked up): as above
The target is the same in series [6]. In words: Ratio of duloxetine IC50 to compound IC50 for serotonin reuptake at human SERT expressed in HEK293 cells at 0.1 uM after 15 mins by fluorescence neurotransmitter transporter assay. It counts as cell-based.
Target sequence in this assay (P31645 whole entry, looked up): as above
The target in series [7] is T2, Sodium-dependent noradrenaline transporter.
Series [8] deals with T1, Sodium-dependent serotonin transporter. In kind it is cell-based, HEK293.
Target sequence in this assay (P31645 whole entry): as the sequence (P31645 whole entry, looked up) above
In series [9] the target is Sodium-dependent dopamine transporter (Homo sapiens, UniProt Q01959).
Sodium-dependent dopamine transporter, sequence (Q01959 whole entry): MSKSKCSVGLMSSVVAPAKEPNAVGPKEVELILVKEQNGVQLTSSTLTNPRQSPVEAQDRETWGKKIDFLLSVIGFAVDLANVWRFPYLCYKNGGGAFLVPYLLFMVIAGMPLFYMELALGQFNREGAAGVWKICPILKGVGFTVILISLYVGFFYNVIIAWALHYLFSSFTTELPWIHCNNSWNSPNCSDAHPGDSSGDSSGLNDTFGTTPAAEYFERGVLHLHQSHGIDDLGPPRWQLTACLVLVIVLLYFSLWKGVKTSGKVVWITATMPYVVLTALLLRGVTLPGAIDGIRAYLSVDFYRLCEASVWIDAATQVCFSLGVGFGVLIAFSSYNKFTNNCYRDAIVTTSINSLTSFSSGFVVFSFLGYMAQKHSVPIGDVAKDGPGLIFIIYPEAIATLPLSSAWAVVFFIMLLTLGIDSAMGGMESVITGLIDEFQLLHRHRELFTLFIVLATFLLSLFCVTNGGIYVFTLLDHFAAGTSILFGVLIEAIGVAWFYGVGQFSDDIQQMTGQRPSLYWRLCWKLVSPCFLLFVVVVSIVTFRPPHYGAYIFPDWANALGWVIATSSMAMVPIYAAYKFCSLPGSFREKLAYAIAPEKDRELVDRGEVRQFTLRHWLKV
The nature of series [10]: Stability in human liver microsomes assessed as compound remaining at 1 uM after 30 mins by LC/MS analysis. It counts as ADME. To be noted: read-out: Stability.
The target of series [11] is T2, Sodium-dependent noradrenaline transporter. As to the kind of experiment: Ratio of duloxetine IC50 to compound IC50 for norepinephrine reuptake at human NET expressed in HEK293 cells at 0.1 uM after 15 mins by fluorescence neurotransmitter transporter assay. It counts as cell-based.
Another series addresses CYP2C19 (Homo sapiens, UniProt P33261). As to the kind of experiment: in vitro. To be noted: recombinant CYP2C19.
In a further series the target is CYP2C9 (Homo sapiens, UniProt P11712). As to the kind of experiment: in vitro. To be noted: recombinant CYP2C9.
CYP2C9, sequence (P11712 whole entry): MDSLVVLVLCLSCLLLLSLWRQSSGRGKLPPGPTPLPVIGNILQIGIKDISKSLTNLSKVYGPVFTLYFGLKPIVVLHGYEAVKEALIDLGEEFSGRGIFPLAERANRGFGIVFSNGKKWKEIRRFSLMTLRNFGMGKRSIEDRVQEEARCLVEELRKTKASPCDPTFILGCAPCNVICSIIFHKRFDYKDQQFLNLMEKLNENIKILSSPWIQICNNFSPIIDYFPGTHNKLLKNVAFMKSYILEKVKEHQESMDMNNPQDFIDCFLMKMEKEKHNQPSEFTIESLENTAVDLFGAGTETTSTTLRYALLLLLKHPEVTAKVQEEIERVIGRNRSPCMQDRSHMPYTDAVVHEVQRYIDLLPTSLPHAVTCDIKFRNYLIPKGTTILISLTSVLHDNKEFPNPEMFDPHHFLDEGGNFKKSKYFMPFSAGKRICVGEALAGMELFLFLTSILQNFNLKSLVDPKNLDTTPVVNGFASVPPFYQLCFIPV
For a further series, the target named is T3, CYP1A2 (Homo sapiens, UniProt P05177).
T3 sequence (P05177 whole entry): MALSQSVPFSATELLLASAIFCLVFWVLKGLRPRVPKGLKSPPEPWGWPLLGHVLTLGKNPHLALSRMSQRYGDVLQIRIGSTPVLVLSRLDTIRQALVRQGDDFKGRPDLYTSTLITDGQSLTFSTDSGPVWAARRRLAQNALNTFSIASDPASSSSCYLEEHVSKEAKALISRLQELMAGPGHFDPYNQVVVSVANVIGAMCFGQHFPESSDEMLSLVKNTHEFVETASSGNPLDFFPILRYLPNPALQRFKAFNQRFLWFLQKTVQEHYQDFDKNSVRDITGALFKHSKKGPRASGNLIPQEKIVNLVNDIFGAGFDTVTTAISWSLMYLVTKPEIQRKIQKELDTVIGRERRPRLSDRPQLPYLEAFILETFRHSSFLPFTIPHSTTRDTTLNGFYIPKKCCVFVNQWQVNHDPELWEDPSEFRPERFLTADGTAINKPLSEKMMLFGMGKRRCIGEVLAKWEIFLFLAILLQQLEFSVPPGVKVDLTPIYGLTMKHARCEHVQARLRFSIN
As to the kind of experiment: in vitro. The note with it: recombinant CYP1A2.

The target in a further series is CYP3A4 (Homo sapiens, UniProt P08684). As to the kind of experiment: in vitro. To be noted: recombinant CYP3A4.
CYP3A4, sequence (P08684 whole entry): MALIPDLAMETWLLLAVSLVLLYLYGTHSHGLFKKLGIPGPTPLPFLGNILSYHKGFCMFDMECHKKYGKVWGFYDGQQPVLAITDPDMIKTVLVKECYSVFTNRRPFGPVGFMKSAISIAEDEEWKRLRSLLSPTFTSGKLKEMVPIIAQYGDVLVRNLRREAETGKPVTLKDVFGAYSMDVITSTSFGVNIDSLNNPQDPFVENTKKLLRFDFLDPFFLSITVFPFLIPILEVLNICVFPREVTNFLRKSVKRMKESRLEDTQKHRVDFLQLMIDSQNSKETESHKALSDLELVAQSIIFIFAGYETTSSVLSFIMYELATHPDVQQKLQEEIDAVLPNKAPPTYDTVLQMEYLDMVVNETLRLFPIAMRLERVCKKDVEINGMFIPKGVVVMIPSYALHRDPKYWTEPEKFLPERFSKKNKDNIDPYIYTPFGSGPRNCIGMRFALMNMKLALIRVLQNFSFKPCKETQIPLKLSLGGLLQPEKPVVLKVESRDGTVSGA
The next series addresses CYP2D6 (Homo sapiens, UniProt P10635). As to the kind of experiment: in vitro. The note with it: recombinant CYP2D6.

Each structure is given as a SMILES string. A value given as a limit tells only on which side of the number the result lay.

T2 sequence (P23975 whole entry): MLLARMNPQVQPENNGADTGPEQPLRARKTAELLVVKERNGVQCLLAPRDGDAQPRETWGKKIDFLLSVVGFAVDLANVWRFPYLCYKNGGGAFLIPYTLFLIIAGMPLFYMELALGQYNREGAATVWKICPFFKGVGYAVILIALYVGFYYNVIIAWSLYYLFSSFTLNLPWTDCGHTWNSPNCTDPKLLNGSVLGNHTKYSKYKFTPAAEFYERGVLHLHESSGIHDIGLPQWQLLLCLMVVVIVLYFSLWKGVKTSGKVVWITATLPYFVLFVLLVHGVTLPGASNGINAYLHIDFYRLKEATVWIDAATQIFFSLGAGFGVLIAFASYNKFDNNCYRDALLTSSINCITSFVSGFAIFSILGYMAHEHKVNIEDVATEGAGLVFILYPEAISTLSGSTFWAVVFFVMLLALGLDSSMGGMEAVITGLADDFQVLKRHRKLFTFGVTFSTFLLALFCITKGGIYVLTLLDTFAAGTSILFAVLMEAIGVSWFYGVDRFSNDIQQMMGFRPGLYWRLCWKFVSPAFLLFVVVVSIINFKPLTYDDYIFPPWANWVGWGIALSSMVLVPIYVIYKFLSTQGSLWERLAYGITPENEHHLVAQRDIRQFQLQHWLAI
CYP2C19, sequence (P33261 whole entry): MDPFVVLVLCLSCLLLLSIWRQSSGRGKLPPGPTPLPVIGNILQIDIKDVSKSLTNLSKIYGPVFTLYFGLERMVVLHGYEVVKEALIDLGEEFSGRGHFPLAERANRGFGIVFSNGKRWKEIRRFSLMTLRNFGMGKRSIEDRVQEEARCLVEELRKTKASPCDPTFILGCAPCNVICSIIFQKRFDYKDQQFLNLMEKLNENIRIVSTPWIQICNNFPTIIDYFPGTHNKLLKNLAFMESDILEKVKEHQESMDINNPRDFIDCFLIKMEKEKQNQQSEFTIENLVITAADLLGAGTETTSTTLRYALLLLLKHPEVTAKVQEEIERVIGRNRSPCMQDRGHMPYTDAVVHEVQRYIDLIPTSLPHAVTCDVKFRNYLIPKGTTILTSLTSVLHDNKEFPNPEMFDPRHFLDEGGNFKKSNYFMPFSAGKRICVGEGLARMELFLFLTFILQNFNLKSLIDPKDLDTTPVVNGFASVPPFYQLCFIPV
CYP2D6, sequence (P10635 whole entry): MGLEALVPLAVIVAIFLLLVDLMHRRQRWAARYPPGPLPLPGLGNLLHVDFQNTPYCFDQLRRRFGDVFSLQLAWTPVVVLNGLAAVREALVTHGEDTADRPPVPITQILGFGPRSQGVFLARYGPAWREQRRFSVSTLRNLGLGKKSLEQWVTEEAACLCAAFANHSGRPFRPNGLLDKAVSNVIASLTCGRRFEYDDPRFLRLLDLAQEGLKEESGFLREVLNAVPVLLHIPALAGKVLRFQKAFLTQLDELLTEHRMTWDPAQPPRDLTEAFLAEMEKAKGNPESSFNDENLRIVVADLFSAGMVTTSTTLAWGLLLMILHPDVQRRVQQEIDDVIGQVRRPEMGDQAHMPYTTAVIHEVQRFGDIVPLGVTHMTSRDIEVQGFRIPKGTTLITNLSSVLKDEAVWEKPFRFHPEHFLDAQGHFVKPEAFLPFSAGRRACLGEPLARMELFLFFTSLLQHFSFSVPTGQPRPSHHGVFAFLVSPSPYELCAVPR

Regarding `Fc1ccc(C(CC2CNC2)Oc2ccc(Cl)cc2)cc1F` (stereo unspecified), the inhibition in series [1] is 49%.

Take `Clc1ccc(C(CC2CNC2)Oc2ccccc2)cc1Cl` (stereo unspecified): the values for the inhibition in series [2], in series [4] and in series [1] were 100%, 100% and 50%, respectively. The Ratio IC50 in series [3], in series [5], in [6] and in series [11] was over 7 each time. For the same compound, the values for the IC50 in series [7], in series [8] and in series [9] were 37.2 nM, 83.4 nM and 52.1 nM, respectively. Besides, in series [10], the remaining at 0.5 h, 1 µM amounted to 67%.

In turn, `Fc1ccc(OC(CC2CNC2)c2ccc(F)c(F)c2)cc1` (stereo unspecified) displayed an inhibition in series [1] of 55%.

As to `Fc1cc(C(CC2CNC2)Oc2ccc(Cl)cc2)ccc1Cl` (stereo unspecified), the inhibition came out at 100% in series [2], 100% in series [4] and 65% in [1].

Regarding `FC(F)(F)Oc1cccc(OC(CC2CNC2)c2ccc(Cl)c(Cl)c2)c1` (stereo unspecified), the inhibition in [2] amounted to 100%; in [4], 77%; in [1], 9%.

Take `Cc1ccc(OC(CC2CNC2)c2ccc(Cl)c(Cl)c2)cc1` (stereo unspecified): the inhibition amounted to 100% in series [2], 100% in [4] and 59% in series [1].

In series [1], `c1ccc(OC(CC2CNC2)c2ccccc2)cc1` (stereo unspecified) gave an inhibition of 66%.

On to `Fc1cc(C(CC2CNC2)Oc2ccccc2OC(F)(F)F)ccc1Cl` (stereo unspecified), for which the values for the inhibition in [2], in series [4] and in series [1] were 100%, 100% and 48%, respectively.

`Fc1ccc(C(CC2CNC2)Oc2ccccc2Cl)cc1F` (stereo unspecified) showed an inhibition in series [1] of 86%.

As to `Clc1ccc(COC(Cn2ccnc2)c2ccc(Cl)cc2Cl)c(Cl)c1` (stereo unspecified) [MICONAZOLE], the inhibition at 10 µM on CYP2C19 amounted to 8.6%.

Consider `Cc1ccccc1OC(CC1CNC1)c1ccc2ccccc2c1` (stereo unspecified), for which the inhibition in [1] is 48%.

With `Clc1ccc(OC(CC2CNC2)c2ccc(Cl)c(Cl)c2)cc1` (stereo unspecified), the inhibition was 100% in series [2], 100% in series [4] and 41% in series [1].

Turning to `Fc1ccc(C(CC2CNC2)Oc2ccccc2F)cc1F` (stereo unspecified), in series [1], the inhibition is 61%.

Turning to `Fc1ccc(C(CC2CNC2)Oc2ccc(OC(F)(F)F)cc2)cc1F` (stereo unspecified), the inhibition in series [1] is 83%.

With `FC(F)(F)Oc1ccc(OC(CC2CNC2)c2ccc(Cl)c(Cl)c2)cc1` (stereo unspecified), the figures for the inhibition in series [2], in [4] and in series [1] were 100%, 98% and 16%, respectively.

For `Cc1ccccc1OC(CC1CNC1)c1ccc(Cl)c(F)c1` (stereo unspecified), the values for the inhibition in [2], in [4] and in series [1] were 100%, 100% and 94%, respectively. Also, the inhibition at 10 µM on CYP2C9 was 32%; on CYP2C19, 14%; at CYP1A2 it was 55%; on CYP3A4, 16%; on CYP2D6, 15%. The IC50 turned out to be 68.6 nM in [7], 37.7 nM in series [8] and 162 nM in [9]. For the same compound, the remaining at 0.5 h, 1 µM in [10] came out at 59%.

`Fc1ccc(C(CC2CNC2)Oc2cccc(Cl)c2)cc1F` (stereo unspecified) showed an inhibition in series [1] of 77%.

Turning to `Fc1cc(C(CC2CNC2)Oc2ccccc2)ccc1Cl` (stereo unspecified), the inhibition in series [2] was 100%; in [4], 100%; in series [1], 80%. Besides, the IC50 in [7] worked out at 10.6 nM; in [8], 51.3 nM; in series [9], 33.1 nM. Also, in series [10], the remaining at 0.5 h, 1 µM came to 41%.

`Fc1ccccc1OC(CC1CNC1)c1ccccc1` (stereo unspecified) displayed an inhibition in series [1] of 64%.

Regarding `O=c1cc(-c2ccccc2)oc2c1ccc1ccccc12` [ALPHA-NAPHTHOFLAVONE], the inhibition at 10 µM on CYP1A2 was 5.4%.

Take `CNCCC(Oc1ccccc1OC)c1ccccc1` (stereo unspecified): the inhibition is 85% in series [2] and 43% in series [4].

In turn, `Fc1ccc(OC(CC2CNC2)c2ccc(F)c(F)c2)cc1F` (stereo unspecified) came in with an inhibition in series [1] of 63%.

With `FC(F)(F)Oc1ccccc1OC(CC1CNC1)c1ccc(Cl)c(Cl)c1` (stereo unspecified), the inhibition in series [2] turned out to be 100%; in [4], 93%; in [1] it was 16%.

For `Fc1ccc(C(CC2CNC2)Oc2ccccc2OC(F)(F)F)cc1F` (stereo unspecified), in series [1], the inhibition was found to be 19%.

With `Cc1cccc(OC(CC2CNC2)c2ccc(F)c(F)c2)c1` (stereo unspecified), the inhibition in series [1] turned out to be 100%.

For `Fc1ccccc1OC(CC1CNC1)c1ccc(Cl)c(Cl)c1` (stereo unspecified), the results for the inhibition in series [2], in [4] and in series [1] were 100%, 100% and 59%, respectively. Further, the Ratio IC50 in series [3], in series [5], in series [6] and in [11] was over 7 each time. Moreover, the values for the IC50 in series [7], in [8] and in series [9] were 33.5 nM, 73.8 nM and 53.6 nM, respectively.

Compound `Fc1ccc(C(CC2CNC2)Oc2ccc(Cl)c(Cl)c2)cc1F` (stereo unspecified) displayed an inhibition in series [1] of 44%.

Take `Clc1ccccc1OC(CC1CNC1)c1ccccc1` (stereo unspecified): in series [1], the inhibition is 100%.

Take `Fc1ccc(OC(CC2CNC2)c2ccc(Cl)c(Cl)c2)cc1` (stereo unspecified): the results for the inhibition in [2], in [4] and in series [1] were 100%, 100% and 64%, respectively. In addition, the Ratio IC50 in [3], in series [5], in [6] and in series [11] was over 7 throughout. Also, the values for the concentration for half-maximal inhibition (IC50) in [7], in series [8] and in series [9] were 33.7 nM, 71.9 nM and 129 nM, respectively.

With `Fc1cc(C(CC2CNC2)Oc2cccc(OC(F)(F)F)c2)ccc1Cl` (stereo unspecified), the inhibition in [2] is 100%; in [4] it was 97%; in [1], 25%.

`Cc1cccc(OC(CC2CNC2)c2ccc(Cl)c(Cl)c2)c1` (stereo unspecified): the figures for the inhibition in series [2], in [4] and in series [1] were 100%, 100% and 21%, respectively. The remaining at 0.5 h, 1 µM in series [10] worked out at 62%.

As for `COCC(=O)O[C@]1(CCN(C)CCCc2nc3ccccc3[nH]2)CCc2cc(F)ccc2[C@@H]1C(C)C` [MIBEFRADIL], the remaining at 0.5 h, 1 µM in [10] came out at 43%.

For the compound `Clc1ccccc1OC(CC1CNC1)c1ccc2ccccc2c1` (stereo unspecified), the inhibition in series [1] was found to be 25%.

Take `Fc1ccc(C(CC2CNC2)Oc2ccccc2)cc1F` (stereo unspecified): in series [1], the inhibition was 48%.

In the case of `Cc1ccccc1OC(CC1CNC1)c1ccc(Cl)c(Cl)c1` (stereo unspecified), the inhibition worked out at 100% in [2], 100% in [4] and 25% in series [1]. Also, in [10], the remaining at 0.5 h, 1 µM amounted to 89%.

In the case of `Clc1ccc(OC(CC2CNC2)c2ccc(Cl)c(Cl)c2)cc1Cl` (stereo unspecified), the inhibition in series [2] amounted to 100%; in series [4] it was 88%; in series [1], 21%.

For the compound `Clc1ccc(C(CC2CNC2)Oc2ccccc2Cl)cc1Cl` (stereo unspecified), the inhibition came out at 100% in [2], 100% in [4] and 40% in series [1].

For `Cc1ccccc1OC(CC1CNC1)c1ccc(F)c(F)c1` (stereo unspecified), the inhibition in series [1] turned out to be 93%.

Turning to `c1ccc(OC(CC2CNC2)c2ccc3ccccc3c2)cc1` (stereo unspecified), in [1], the inhibition is 56%.

As for `Clc1ccc([C@]23CNC[C@H]2C3)cc1Cl` [AMITIFADINE], the remaining at 0.5 h, 1 µM in series [10] is 67%.

As to `Cc1ccccc1OC(CC1CNC1)c1ccccc1` (stereo unspecified), the inhibition in series [1] stood at 100%.

As for `Fc1ccc(OC(CC2CNC2)c2ccc(Cl)c(Cl)c2)cc1F` (stereo unspecified), the inhibition in series [2] was 100%; in series [4] it was 100%; in series [1] it was 31%.

In [1], `Fc1ccc(C(CC2CNC2)Oc2cccc(OC(F)(F)F)c2)cc1F` (stereo unspecified) yielded an inhibition of 83%.

In turn, `Cc1ccc(OC(CC2CNC2)c2ccc(F)c(F)c2)cc1` (stereo unspecified) gave an inhibition in [1] of 83%.

For the compound `Fc1cccc(OC(CC2CNC2)c2ccc(F)c(F)c2)c1` (stereo unspecified), the inhibition in [1] was 94%.

With `Fc1cccc(OC(CC2CNC2)c2ccc(Cl)c(Cl)c2)c1` (stereo unspecified), the inhibition was 100% in series [2], 100% in series [4] and 26% in [1].

On to `Nc1ccc(S(=O)(=O)Nc2ccnn2-c2ccccc2)cc1` [SULFAPHENAZOLE], for which the inhibition at 10 µM on CYP2C9 turned out to be 11.3%.

In the case of `Clc1cccc(OC(CC2CNC2)c2ccc(Cl)c(Cl)c2)c1` (stereo unspecified), the inhibition in series [2] was 100%; in series [4] it was 100%; in [1], 35%.
